Data published in patent publication US20220040263A1, “COMPANION DIAGNOSTIC FOR COMBINATION LENALIDOMIDE AND ERYTHROPOIETIN TREATMENT” (H. Lee Moffitt Cancer Center and Research Institute, Inc., priority 2016, published 2022).

Key:
rhu-CD45 = biological target: T1, rhu-CD45 (Homo sapiens, UniProt P08575); assay: BIOMOL Green CD45 Tyrosine Phosphatase Assay; type: biochemical; details: recombinant CD45, substrate pp60c-Src, read-out: inhibition of CD45 PTP activity
T1 construct: purchased Calbiochem
T1 sequence (P08575 26-1306): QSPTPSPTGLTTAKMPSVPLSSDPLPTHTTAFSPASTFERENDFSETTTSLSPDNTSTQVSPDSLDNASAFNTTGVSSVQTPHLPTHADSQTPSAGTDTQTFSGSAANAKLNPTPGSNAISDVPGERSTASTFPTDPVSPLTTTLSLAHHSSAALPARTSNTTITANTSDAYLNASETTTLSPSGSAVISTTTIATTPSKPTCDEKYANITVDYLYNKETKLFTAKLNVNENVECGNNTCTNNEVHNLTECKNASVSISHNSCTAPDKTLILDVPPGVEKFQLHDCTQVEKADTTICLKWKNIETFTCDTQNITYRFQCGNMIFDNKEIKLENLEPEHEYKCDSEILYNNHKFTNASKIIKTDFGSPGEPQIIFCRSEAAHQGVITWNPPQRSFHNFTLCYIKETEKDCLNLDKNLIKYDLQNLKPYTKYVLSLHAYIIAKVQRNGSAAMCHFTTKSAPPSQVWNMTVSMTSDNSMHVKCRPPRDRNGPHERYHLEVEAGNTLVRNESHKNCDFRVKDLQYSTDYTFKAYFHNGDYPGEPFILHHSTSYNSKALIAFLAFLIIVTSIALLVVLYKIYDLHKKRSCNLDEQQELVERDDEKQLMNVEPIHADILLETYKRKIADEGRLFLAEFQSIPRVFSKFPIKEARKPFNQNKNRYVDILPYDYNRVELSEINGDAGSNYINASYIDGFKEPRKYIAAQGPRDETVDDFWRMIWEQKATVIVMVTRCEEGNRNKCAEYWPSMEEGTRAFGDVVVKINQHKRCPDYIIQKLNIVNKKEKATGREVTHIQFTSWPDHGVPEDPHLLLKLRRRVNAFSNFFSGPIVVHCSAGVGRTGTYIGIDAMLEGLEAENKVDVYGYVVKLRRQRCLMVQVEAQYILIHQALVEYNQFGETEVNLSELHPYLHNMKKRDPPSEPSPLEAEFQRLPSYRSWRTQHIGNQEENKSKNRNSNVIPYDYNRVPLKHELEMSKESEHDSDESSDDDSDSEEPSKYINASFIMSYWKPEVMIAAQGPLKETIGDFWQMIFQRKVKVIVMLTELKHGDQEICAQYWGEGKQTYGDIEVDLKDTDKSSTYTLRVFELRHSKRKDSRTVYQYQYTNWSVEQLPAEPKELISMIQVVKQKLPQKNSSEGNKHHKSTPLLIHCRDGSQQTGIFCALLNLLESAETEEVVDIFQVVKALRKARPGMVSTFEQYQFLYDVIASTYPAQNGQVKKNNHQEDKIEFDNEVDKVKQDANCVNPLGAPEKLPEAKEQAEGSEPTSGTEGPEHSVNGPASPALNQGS
Procedure: CD45-specific PTP activity was assayed as outlined in the BIOMOL Green™ CD45 Tyrosine Phosphatase Assay Kit. Briefly, 75 U of rhu-CD45 (Calbiochem) was incubated for 1H at 37° C. with the indicated inhibitors (1 μM CC5013 and thalidomide, 100 μM Na Orthovanadate, and 50 μM RWJ-60475 (CD45-specific PTP inhibitor) in 1× assay buffer. The substrate pp60c-Src was added at 200 μM and incubated for 1H at 37° C. Samples were read on a plate reader at 620 nm. Percent PTP activity was calculated according to the equation (OD of test sample/OD of control)×100.
This notion is in agreement with findings that lenalidomide suppressed cytosolic release of Csk that is dependent upon dephosphorylation of the Cbp/PAG Csk docking site (Tyr314) by CD45. To determine if lenalidomide inhibits CD45 phosphatase, recombinant CD45 PTP inhibition by lenalidomide and thalidomide was compared to the pan-PTP inhibitor sodium orthovanadate and the CD45-selective inhibitor, RWJ-60475 using the Biomol CD45 phosphatase assay. […] [FIG. 7].

UT-7 cells = assay: UT7 colony forming assay with or without EPO; type: cell-based
Procedure: FIGS. 1A and 1B show Lenalidomide potentiates clonogenic response to […]. […] Colonies were scored after 14 days incubation and the growth of bone marrow colony-forming unit granulocyte, erythroid, macrophage, megakaryocyte (CFU-GEMM); burst-forming unit-erythroid (BFU-E); and colony-forming unit granulocyte-macrophage (CFU-GM) assessed. […] Cells were then plated in methylcellulose+10% FBS, 2000 cells/well, with or without erythropoietin (EPO). Colonies were scored at day seven.
When UT7 cells were exposed to lenalidomide prior to culture initiation with EPO, supra-additive colony forming capacity was observed that exceeded growth induced by EPO and/or lenalidomide treatments [P=0.001].

[1] = system: LR non-del(5q) MDS patients refractory to, or not candidates for, rhEpo; assay: Randomized phase III trial LEN vs LEN+EA; type: in vivo, human
Excerpt: Treatment with rhu-Epo ameliorates anemia in a subset of LR-MDS patients, however, effective salvage therapy is limited. LEN promotes erythroid lineage competence and expansion of primitive erythroid precursors in vitro. In the MDS-002 and MDS-005 trials, treatment with LEN improved erythropoiesis, yielding RBC transfusion-independence in 26% of azanucleoside-naive, transfusion-dependent (TD) LR, non-del(5q) MDS patients for a median of 10.2 and 7.75 months, respectively. LEN restores Epo-responsiveness in MDS progenitors by inducing the formation of lipid rafts enriched for signaling competent JAK2/Epo-receptor complexes with exclusion of large isoforms of the JAK2/lyn kinase-phosphatase CD45 generated by alternative splicing (McGraw K, et. al. PLoS One 2014). […] To test this hypothesis, randomized phase III trial was performed comparing treatment with LEN to LEN+EA in LR non-del(5q) MDS patients who were refractory to, or not candidates for treatment with rhEpo.
Patients with Low or Intermediate-1 (Int-1) risk IPSS MDS with hemoglobin <9.5 g/dL who were unresponsive to rhEpo treatment or were TD (>2 units/mo) with serum Epo >500 mU/mL were eligible for study. Patients were stratified by serum Epo level and prior rhEpo (EA vs. darbepoetin vs. none) then randomized to treatment with LEN 10 mg/d×21d q4 wk (Arm A) or LEN+EA 60,000 U SC/wk (Arm B). Primary endpoint was IWG 2006 major erythroid response (MER) rate after 4 cycles. Arm A non-responders were offered cross-over to combined therapy. Secondary endpoints included analysis of response biomarkers.

With `Nc1cccc2c1CN(C1CCC(=O)NC1=O)C2=O` (stereo not drawn) [lenalidomide, 3-(4-amino-1-oxo-1,3-dihydro-2H-isoindol-2-yl)piperidine-2,6-dione] the inhibition at 1 µM (rhu-CD45) was about 50%, the colony forming capacity (UT-7 cells; UT7 cells exposed to lenalidomide prior to culture initiation with EPO, P=0.001) was “supra-additive” and the colony forming capacity (UT-7 cells; lenalidomide 1 μM alone, UT7 cells) was “minimal effect”. For the same molecule, the “MER rate among patients evaluable at week 16” value ([1]; 116 evaluable patients, P=0.018) was 14.3%, the “major erythroid response (MER) rate, ITT analysis” value ([1]; IWG 2006 MER, interim analysis of 163 patients, P=0.015) was 9.9% and the “median duration of response” value ([1]; MER responders) was “not reached”.
